Among the data in ChEMBL document CHEMBL5727030, “Factor IXa inhibitors” (2018) are IC50 values, retold here.

What is called IC50 is the concentration that gives 50% inhibition.

The target of the assay is Coagulation factor IX (Homo sapiens, UniProt P00740). Nature of the assay: Test substances were dissolved in buffer A (50 mM α,α,α-tris(hydroxymethyl) methylamine (Tris), 100 mM NaCl, 5 mM CaCl2, 15% (v/v) ethylene glycol, pH 8.0) were mixed with factor IXa (0.1 μg/ml final concentration). The enzyme reaction was started by addition of SPECTROFLUOR FIXa (100 μM final concentration).
Chain of Coagulation factor IX (P00740 47-191 limits assumed): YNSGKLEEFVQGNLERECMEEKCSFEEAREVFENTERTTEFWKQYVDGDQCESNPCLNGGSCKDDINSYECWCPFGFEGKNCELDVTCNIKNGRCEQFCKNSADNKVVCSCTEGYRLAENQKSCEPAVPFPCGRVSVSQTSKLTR
Chain of Coagulation factor IX (P00740 227-461 limits assumed): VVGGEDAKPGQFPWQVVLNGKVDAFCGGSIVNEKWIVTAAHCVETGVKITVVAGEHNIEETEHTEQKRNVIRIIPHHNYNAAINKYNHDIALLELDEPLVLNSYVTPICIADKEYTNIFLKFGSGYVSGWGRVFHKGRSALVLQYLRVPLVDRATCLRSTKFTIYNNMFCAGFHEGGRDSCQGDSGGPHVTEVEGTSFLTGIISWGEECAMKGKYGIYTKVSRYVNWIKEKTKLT

In the case of `Nc1noc2c(N3CCC(NC(=O)c4c(Cl)cc(-n5cnnc5)cc4Cl)(c4ccccc4)C3)cccc12` (stereo unspecified), the IC50 is less than 100 nM.
